Entries after “also recorded” stand apart in the source; their conditions may differ. Structures can show the parent of a compound that is named as a salt. Where two headings read alike, the source gives them in different places.
How the values were obtained:
[1] = test system: BXPC3 cells; assay: Propidium iodide staining, BXPC3; format: cell-based; conditions: various concentrations
Description: (§1) Compound II is referred to as “NC5-SO2F” in FIGS. 7A-7C.

[2] = test system: MDA-MB-231 cells; assay: MTT proliferation assay, MDA-MB-231; format: cell-based
Method: (§2) MTT assay—The MTT assay was used to detect cell proliferation. Briefly, cells were plated in a 96-well plate at a density of 50,000 cells/well in 200 μl of culture medium with candidate drugs to be tested (DMSO as a negative control). The treated cells were incubated for four hours a 37° C. with a 5% CO2 incubator to allow dark crystals to form at the bottom of the wells. After culturing for 48 hours, […] of MTT reagent was added to each well and mixed gently for one minute. After aspirating the culture medium from each well, 100 μl of crystal dissolving solution was added to each well and incubated for 10 minutes at RT. The signal was quantified by measuring the absorbance in each sample at 570 nm using a microplate reader.
as §1
Cell proliferation was first determined by MTT assay as confirmation. […] CrkL is known to mediate the activation of both Raf/ERK and PI3K pathways. So, proteins that relate to these two pathways were utilized.

[3] = test system: PDAC cells BXPC3; assay: MTT assay, BXPC3; format: cell-based; conditions: 5 uM
Method: as §2, §1

[4] = Thermodynamic solubility; format: physicochemical; conditions: thermodynamic from solid
Method: In this example, solubility measurement assays were performed using a phosphate buffer (also referred to as “PB”) system and a water system to evaluate thermodynamic solubility. The PB system was at a pH of 7.4 to mimic in vivo environments. For the PB system, the values were determined to be NC5: Thermodynamic Solubility pH=7.4<0.42 μg/mL; Compound III: Thermodynamic Solubility pH=7.4<0.48 μg/mL; and Compound I: Thermodynamic Solubility pH=7.4<0.48 μg/mL. Results for the water assay were as follows: NC5: Thermodynamic Solubility Water<0.42 μg/mL; Compound III: Thermodynamic Solubility Water<0.48 μg/mL; and Compound I: Thermodynamic Solubility Water<0.48 μg/mL.

[5] = test system: MDA-MB-231 cells; assay: XTT cell viability, MDA-MB-231; format: cell-based; conditions: 24 and 48 hours
Method: (§3) FIGS. 8A-8C show results using MDA-MB-231 cells (FIG. 8A) or BXPC3 cells (FIG. 8B), wherein the cells were treated with 5 μM of NC5, Compound III (referred to as “NC5-140-1” in FIGS. 8A-8C), and Compound I (referred to as “NC5-140-2” in FIGS. 8A-8C) for 24-48 hours, wherein the XTT assay was used to determine cell viability. The symbol indicates the significance of NC5 vs. Compounds I and/or III; *p<0.05. Data represent mean±SEM.
(§4) Compound embodiments, compound III and compound I, were also made and evaluated. TNBC cells and PDAC cells were treated with a serial dose of original NC5 and modified NC5 derivatives for 24 and 48 hours. The cell viability will be measured by XTT assay. […] Compound III is referred to as “NC5-140-1” and Compound I is referred to as “NC5-140-2” in FIGS. 8A-8C.

[6] = test system: Sk-Hep1 cells; assay: Growth inhibition of Sk-Hep1 cells (cell culture images); format: cell-based; conditions: 5 μM, 24 hours
[7] = test system: Sk-Hep1 tumor; assay: HCC Sk-Hep1 xenograft model; format: in vivo, NSG mice; conditions: four-group study, 5.0 μg/g oral gavage
Description: To further test whether the tumor growth inhibition effect of NC5 applied to other solid tumors, the HCC-Sk-Hep1cell line and PDAC-BXPC3 cell line xenograft models were used. Subcutaneous injection of 1.5×10^6 SK-Hep1 or BXPC3 cells in NSG mice, Six-ten days after tumor cell injection, the palpable tumor in NSG mice was confirmed.
To test the effects of the disclosed compounds on the xenograft mouse models, the HCC-Sk-Hep1 cell line xenograft model in NSG mice and 4T1-Luc orthotopic syngeneic breast tumor model in Balb/c mice was used. After confirming the palpable tumor in NSG or Balb/c mice. […] Compound III is referred to as “NC5-140-1” and Compound I is referred to as “NC5-140-2” in FIGS. 11A-11C.

[8] = test system: BXPC3 cells; assay: XTT cell viability, BXPC3; format: cell-based; conditions: 24 and 48 hours
Method: as §3, §4

[9] = test system: CrkL (phosphorylation at Y207 by Ab1); assay: AlphaScreen of Ab1 phosphorylation of CrkL at Y207; format: biochemical; conditions: compared to DMSO; positive control in the five libraries
[10] = test system: IL-2 production from human PBMCs; assay: IL-2 ELISA, PBMCs; format: cell-based
Method: IL-2 ELISA—IL-2 in vitro enzyme-linked immunosorbent assay (ELISA) was used to measure human IL-2 productions. This assay was conducted per the user manual from the kit. In brief, human PBMCs were cultured in R10 medium with 0.5 μg/ml PHA. Then, 100 μl of the standard and sample was added to each well and incubated at 4° C. overnight. A prepared biotin antibody (100 μl) was added to each well and incubated for 1 hour at room temperature. Then, 100 μl prepared streptavidin solution was added and incubated for 45 minutes at room temperature. TMB one-step substrate reagent (100 μl) was then added to each well and incubated for 30 minutes at room temperature. Stop solution (50 μl) was then added to each well, and the results were quantified at 450 nm by Infinite M1000 Pro Plate Reader (Tecan, Switzerland) immediately.
Previous studies have shown that phosphorylated CrkL inhibits immune cell functions. It was then evaluated whether a pCrkL inhibitor could restore immune cell functions. To test this, the production of IL-2 from human PBMCs treated with different concentrations of Pomiferin was quantitated. Phytohemagglutinin (PHA) was used to stimulate the secretion of IL-2 as a positive control group. […] Similar results were obtained from the third donor (FIG. 5B, lower panel).

[11] = biological target: CrkL (Homo sapiens, UniProt P46109); format: biochemical
Description: Single-molecule Fluorescence Resonance Energy Transfer (smFRET)—Single-molecule Fluorescence Resonance Energy Transfer (smFRET) was applied to monitor conformations of single molecules. CrkL has two cysteines (a relatively rare amino acid), one in its SH2 and another in SH3C domains. CrkL was mixed with a mixture of equal amounts of Alexa555-maleimide and Alexa647-maleimide (Invitrogen, USA) (10× over protein concentration) to randomly label the two cysteines. The labeled protein was purified from an unreacted dye by gel filtration. Molecules with exactly one donor and acceptor are identified in single-molecule data analysis and used for further analysis. […] The FRET change between non-phosphorylated CrkL and phosphorylated CrkL was measured. The dye-labeled protein was used in in vitro kinase assays with different drugs treatments as described above. smFRET measurements were performed with a prism-type total internal refection microscope (TIRF) where FRET efficiency is calculated from measured donor and acceptor intensities (Id and Ia, respectively) by FRET=Ia/(Id+Ia), as described previously. To surface immobilize 6×His tagged CrkL, the protein was added to the biotinylated 6×His antibody (Thermo Scientific Cat #: MA1-80087) bound to streptavidin, which was adsorbed to a quartz slide. A lipid bilayer was used to passivate the quartz surface. Phosphorylation was performed on the immobilized Crk in situ.
In intramolecular smFRET, non-radiative energy transfer occurs when two fluorophores attached to different parts of one molecule move close together. […] A cysteine-maleimide-based chemistry was used to label both CrkL and mutant (non-phosphorylatable) CrkL-Y207F. CrkL has a cysteine (a relatively rare amino acid) in its SH2 (labeled with AlexaFluor555) and SH3C (labeled with AlexaFluor647). […] Western Blot (WB) and immunoprecipitation (IP) was used to verify that labeled proteins retain the same gross functional properties as wild-type CrkL (e.g., are phosphorylatable and capable of binding SH2 and SH3 ligands). Briefly, site-specific labeled CrkL was mixed with Ab1 in the presence of Mg^2+ and ATP. A single AlphaScreen-identified candidate inhibitor was then added per assay.

[12] = Mouse toxicity assays (serum ALT, AST, BUN, creatinine); format: in vivo, mice; conditions: at the indicated dosages
Method: Three mice were treated in each group. Blood samples were collected from every mouse in pre-treatment and post-treatment (20 days), and serum was obtained for alanine aminotransferase (ALT, SGPT, FIG. 12A), aspartate aminotransferase (AST, SGOT, FIG. 12B), blood urea nitrogen (BUN, FIG. 12C), and creatinine (FIG. 12D) tests to monitor liver and kidney toxicity. The normal Reference Ranges for ALT is 17-77 IU/L; AST is 54-298 IU/L; BUN is 18.5-33.3 mg/dL; Cr is 0-0.40 mg/dL.
Mouse toxicity assays—Blood was collected from the submandibular facial vein following IACUC guidelines (CMP, Houston Methodist Research Institute and Rutgers University) before and 20-day after the drug treatment. The Department of Veterinary Medicine & Surgery, MD Anderson Cancer Center, performed the clinical biochemistry and pharmacokinetics tests. Blood serum chemistry analysis included alanine transaminase (ALT), aspartate transaminase (AST), blood urea nitrogen (BUN), and creatinine level measurements.
Alanine aminotransferase (ALT, SGPT), aspartate aminotransferase (AST, SGOT), blood urea nitrogen (BUN), and creatinine levels were examined to determine liver and kidney toxicity of Pomiferin treatments in vivo. […] Nevertheless, these changes have no physiological significance because ALT, AST and BUN levels in all mice were within normal mouse reference ranges. […]

Chain of CrkL (P46109 whole entry, the tested form may be a part): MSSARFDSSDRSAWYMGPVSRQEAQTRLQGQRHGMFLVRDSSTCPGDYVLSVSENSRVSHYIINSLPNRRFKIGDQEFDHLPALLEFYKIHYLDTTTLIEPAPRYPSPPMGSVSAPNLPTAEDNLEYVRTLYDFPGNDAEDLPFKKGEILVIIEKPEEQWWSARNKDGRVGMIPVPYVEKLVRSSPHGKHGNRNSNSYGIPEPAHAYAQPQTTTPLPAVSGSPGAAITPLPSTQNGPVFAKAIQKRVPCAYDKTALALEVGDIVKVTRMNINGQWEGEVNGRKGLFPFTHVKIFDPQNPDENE

**Q.** What does the source list for CC(C)=CCc1c2c(c3occ(-c4ccc5c(c4)OS(=O)(=O)O5)c(=O)c3c1OS(=O)(=O)F)C=CC(C)(C)O2 [Compound II]?
**A.** killing effect by propidium iodide staining [1]: killing effect was further confirmed; toxicity compared with NC5 (MTT viability) ([2]; 5 μM): increased toxicity; killing effect compared with NC5 (MTT) ([2]; different concentrations): comparable killing effect as NC5; killing effect / toxicity compared with NC5 (MTT) [3]: stronger killing effect than NC5; also recorded: increased toxicity

**Q.** For CC(C)=CCc1c2c(c(O)c3c(=O)c(-c4ccc5c(c4)OS(=O)(=O)O5)coc13)C=CC(C)(C)O2 [Compound I], which solubility thermodynamic ([4]; aqueous buffer, phosphate buffer (PB) system, pH 7.4, read-out: Thermodynamic Solubility pH=7.4) is on record?
**A.** < 0.48 µg/mL

**Q.** And the solubility thermodynamic ([4]; water system, read-out: Thermodynamic Solubility Water)?
**A.** < 0.48 µg/mL

**Q.** And the “toxic effect compared with NC5 (XTT viability)” value [5]?
**A.** comparable toxic effect as NC5

**Q.** What about the “toxic effect compared with NC5 (growth inhibition)” value [6] of the same compound?
**A.** better toxic effect than NC5

**Q.** What about the tumor growth [7] of the same compound?
**A.** inhibit tumor growth

**Q.** And the median survival ([7]; vehicle 26 days)?
**A.** 28.5 days

**Q.** What about the “toxic effect compared with NC5 (XTT viability)” value [8] of the same compound?
**A.** better toxic effect than NC5

**Q.** Which results are given for Cc1ccc(NC(=O)c2ccc(CN3CCN(C)CC3)cc2)cc1Nc1nccc(-c2cccnc2)n1 [Gleevec, imatinib mesylate]?
**A.** Alpha signal decrease [9]: 80-90%; IL2 secretion ([10]; PBMCs from three healthy donors, treated overnight): did not inhibit IL2 secretion; IL-2 production ([10]; first donor, compared to DMSO): decreased IL-2 production; inhibition of the higher FRET caused by Ab1 (pCrkL) ([11]; CrkL + Ab1, Mg2+ and ATP): inhibited; FRET signal ([11]; CrkL about 0.4, CrkL+Ab1 about 0.6): 0.4; damage to the liver and kidneys [12]: little to no damage to the liver and kidneys
